This note sets out measurements from ChEMBL document CHEMBL5214908, “Small Scorpion-like Peptidomimetics: Potential Broad-Spectrum Membrane Active Antimicrobials without Detectable Resistance” (J Med Chem, 2021).

≈ marks a conversion by molar mass, not a printed value.

Data set [1] in a line: Hemolytic activity in human RBC. Type of data set: toxicity, cell-based, Erythrocyte. As to conditions: human red blood cells (erythrocytes).
Data set [2] deals with Staphylococcus aureus. The data set is described as follows: Antibacterial activity against methicillin-resistant Staphylococcus aureus assessed as reduction in bacterial growth. The format is functional.
In data set [3] the test system is Staphylococcus epidermidis. The data set is described as follows: Antibacterial activity against methicillin-resistant Staphylococcus epidermidis assessed as reduction in bacterial growth. The format is functional.
In the next data set the test system is Enterococcus faecium. The data set is described as follows: Antibacterial activity against vancomycin-resistant Enterococcus faecium assessed as reduction in bacterial growth. Type of data set: functional.
The test system of data set [4] is Staphylococcus aureus. The data set can be described thus: In vivo antibacterial activity against methicillin-resistant Staphylococcus aureus infected in murine assessed as log reduction in bacterial burden. Type of data set: functional. More on the design: scale not given: the % may be the effect or the level left.
In a further data set the test system is Klebsiella pneumoniae. The data set is described as follows: Antibacterial activity against Klebsiella pneumoniae assessed as reduction in bacterial growth. The format is functional.
For a further data set, the system named is Pseudomonas aeruginosa. The data set can be described thus: Antibacterial activity against Pseudomonas aeruginosa assessed as reduction in bacterial growth. The format is functional.
Another data set has as its system Escherichia coli. The data set can be described thus: Antibacterial activity against Escherichia coli assessed as reduction in bacterial growth. Type of data set: functional.

As to `CCCCCCCCCNC(=O)[C@H](CCCCN)NC(=O)c1ccc(C(=O)N[C@@H](CCCCN)C(=O)NCCCCCCCCC)cc1`, in data set [1], the HC50 is 180 µg/mL. The MIC with Staphylococcus aureus [2] stood at 0.75 µg/mL (≈ 1.11 µM).

Turning to `NCCCC[C@H](N)CN(CC(=O)Nc1cc(NC(=O)CN(C[C@@H](N)CCCCN)C(=O)CC23CC4CC(CC(C4)C2)C3)cc(C(=O)NCCNC(=O)CC23CC4CC(CC(C4)C2)C3)c1)C(=O)CC12CC3CC(CC(C3)C1)C2`, the minimal inhibitory concentration (MIC) (in data set [3]; in the data set with Enterococcus faecium; in the data set with Staphylococcus aureus [2]; in the data set with Klebsiella pneumoniae; in the data set on Pseudomonas aeruginosa; with Escherichia coli) was 2 µg/mL (≈ 1.88 µM) each time. This compound also gave an HC50 in data set [1] of 250 µg/mL. Also, the Activity with Staphylococcus aureus [4] amounted to 99.998%.

Broadly, the HC50 is the concentration that lyses half of the red blood cells. For orientation: MIC means the smallest concentration in the dilution series that meets the test's criterion for growth inhibition.
